Measurements as given in patent US20090181975A1, “NEBIVOLOL IN THE TREATMENT OF SEXUAL DYSFUNCTION” (FOREST LABORATORIES HOLDINGS LIMITED, priority 2008, published 2009).

How the values were obtained:
anesthetized rats = test: Mean arterial pressure (MAP) and heart rate (HR) in anesthetized rats; format: in vivo, rat (Sprague-Dawley)
Procedure: To determine blood pressure and heart rate, Sprague-Dawley rats (250-400 g) were anesthetized with ketolar and diazepam. The right carotid artery was catheterized for constant blood pressure and heart rate measurement by means of a pressure transducer connected to a PowerLab data acquisition system (ADInstruments). The left external jugular vein was catheterized for saline or drug infusion. 3 mg/kg nebivolol (n=6) or vehicle (50% glycofurol; n=4) was administered intravenously in anesthetized rats and MAP and HR were measured. […] The effect of nebivolol in combination with the type 5 phosphodiesterase (PDE-5) inhibitor sildenafil on hypotension and heart rate was studied in rats using the methods described above.

cGMP in rat plasma [1] = test: Plasma cGMP content by ELISA; format: in vivo, rat (Sprague-Dawley)
Procedure: To determine the plasma cGMP content, Sprague-Dawley rats were anesthetized with urethane (1.25 g/kg). The right carotid artery was catheterized for constant blood pressure and heart rate measurement by means of a pressure transducer connected to a PowerLab data acquisition system (ADInstruments). The left external jugular vein was catheterized for saline or drug infusion. After administering the respective treatments, rat plasma samples were collected, immediately frozen and stored at −80° C. until extraction for cyclic nucleotide assay. cGMP was determined by ELISA using a kit from Cayman Chemical Co. Plasmatic cGMP levels were determined 10 minutes after nebivolol administration.

cGMP in rat plasma [2] = test: Plasma cGMP in STZ-diabetic rats; format: in vivo, rat (Sprague-Dawley)
Procedure: Male Sprague-Dawley rats were used as a model for this study. Diabetes was induced by a single injection of streptozotocin (STZ, 60 mg/kg; i.p.) dissolved in 0.1 M citric acid/trisodic citrate buffer (pH 4-4.5) and was assessed by glycemia determination 72 h after induction. Animals were kept, with free access to food and water, for 8 weeks before experimental assays. Eight weeks after induction of diabetes, rats show altered in vivo vascular function (Angulo et al., Naunyn-Schmiedeberg's Arch Pharmacol, 358(5), 529-37, 1998) and reduced erectile responses (Angulo et al., J. Sex Med., 2, 341-346, 2005). Blood glucose concentration was determined each week and just before the experiment. Insulin levels were not determined. Plasma samples were collected, immediately frozen and stored at −80° C. until extraction for cyclic nucleotide assay. Samples were then precipitated in ethanol, centrifuged and the supernatant was dried under a nitrogen stream. Penile tissues were rapidly immersed in liquid nitrogen and were stored at −80° C. until extraction for cyclic nucleotide assay. […] After 10 days treatment, diabetic rats were anesthetized and erectile responses to cavernosal nerve electrical stimulation (CNES) were determined. After an equilibration period, the PDE-5 inhibitor sildenafil (0.3 mg/kg) or the vehicle (25% glycofurol) was intravenously administered. Forty five minutes later, erectile responses to CNES were again evaluated, and 5 min after CNES application, blood was collected for obtaining plasma and serum, and the penis was excised. Serum samples were immediately frozen until determinations of NOx and TBARS. Plasma and penile tissues were immediately frozen until determinations of cGMP.

[3] = test system: thiobarbituric acid reactive substances (TBARS) in rat serum; test: Serum TBARS in STZ-diabetic rats; format: in vivo, rat (Sprague-Dawley); conditions: for effect on TBARS levels in diabetic rats: groups with and without sildenafil pooled
Procedure: Male Sprague-Dawley rats were used as a model for this study. Diabetes was induced by a single injection of streptozotocin (STZ, 60 mg/kg; i.p.) dissolved in 0.1 M citric acid/trisodic citrate buffer (pH 4-4.5) and was assessed by glycemia determination 72 h after induction. Animals were kept, with free access to food and water, for 8 weeks before experimental assays. Eight weeks after induction of diabetes, rats show altered in vivo vascular function (Angulo et al., Naunyn-Schmiedeberg's Arch Pharmacol, 358(5), 529-37, 1998) and reduced erectile responses (Angulo et al., J. Sex Med., 2, 341-346, 2005). Blood glucose concentration was determined each week and just before the experiment. Insulin levels were not determined. Blood was collected from the right ventricle, clotted in gel and centrifuged at 1500×g to obtain serum. Thiobarbituric acid reactive substances (TBARS) were determined by reacting thiobarbituric acid with serum samples at 70° C. for 30 min and reading absorbance at 532 nm. Serum concentrations of TBARS were determined by using malondialdehyde (MDA) as a standard. […] Results were expressed as ng/ml of MDA equivalents. […] After 10 days treatment, diabetic rats were anesthetized and erectile responses to cavernosal nerve electrical stimulation (CNES) were determined. After an equilibration period, the PDE-5 inhibitor sildenafil (0.3 mg/kg) or the vehicle (25% glycofurol) was intravenously administered. Forty five minutes later, erectile responses to CNES were again evaluated, and 5 min after CNES application, blood was collected for obtaining plasma and serum, and the penis was excised. Serum samples were immediately frozen until determinations of NOx and TBARS. Plasma and penile tissues were immediately frozen until determinations of cGMP.

[4] = test system: human penile resistance arteries (HPRA); test: Relaxation of human penile resistance arteries contracted with U46619 (myograph); format: cell-based; parameters: effect on endothelium-dependent relaxation of HPRA caused by acetylcholine / effect on sildenafil-mediated relaxation of HPRA: unit of the concentration uncertain; conditions: for effect on endothelium-dependent relaxation of HPRA caused by acetylcholine: metoprolol (1 (unit uncertain)), nebivolol (0.3 (unit uncertain))
Procedure: Specimens of human corpus cavernosum were obtained from organ donors and from impotent men at the time of penile prosthesis implantation. Tissues were placed in ice-cold M-400 solution (pH 7.4; 400 mOsm/kg, composition in w/v: 4.19% manitol, 0.2% KH2PO4, 0.97% K2HPO4.3H2O, 0.11% KCl and 0.08% NaHCO3) at the time of removal and transported to the laboratory for utilization within 16 h.
To determine the resistance of penile small arteries, helicine arteries (lumen diameter 150-400 μm) which are the terminal branches of deep penile arteries, were dissected by carefully removing the adhering trabecular tissue, and arterial ring segments (2 mm long) were subsequently mounted on two 40 μm wires on microvascular double Halpern-Mulvany myographs (J.P. Trading, Aarhus, Denmark) for isometric tension recordings. The chambers were filled with PSS continuously bubbled with 95% O2/5% CO2 mixture to maintain a pH of 7.4. […]

diabetic rats = test: Glycemia, arterial pressure and heart rate in STZ-diabetic rats after 10 days s.c. treatment; format: in vivo, rat (Sprague-Dawley); conditions: 3 or 10 mg/kg/day s.c. for 10 days
Procedure: Male Sprague-Dawley rats were used as a model for this study. Diabetes was induced by a single injection of streptozotocin (STZ, 60 mg/kg; i.p.) dissolved in 0.1 M citric acid/trisodic citrate buffer (pH 4-4.5) and was assessed by glycemia determination 72 h after induction. Animals were kept, with free access to food and water, for 8 weeks before experimental assays. Eight weeks after induction of diabetes, rats show reduced erectile responses (Angulo et al., Naunyn-Schmiedeberg's Arch Pharmacol, 358(5), 529-37, 1998; Angulo et al., J. Sex Med., 2, 341-346, 2005). Blood glucose concentration was determined each week and just before the experiment. Insulin levels were not determined. […] After this period of treatment, the diabetic rats were anesthetized and ICP responses to electrical stimulation were evaluated. After an equilibration period, the PDE5 inhibitor sildenafil (0.3 mg/kg) or the vehicle (25% glycofurol) was intravenously administered. Forty five minutes later, ICP responses were again determined

[5] = nebivolol 1 mg/kg i.v., pre-treatment sildenafil 0.3 mg/kg i.v.
[6] = nebivolol 3 mg/kg i.v., L-NAME 3 mg/kg, ODQ 1 mg/kg, propranolol 1 mg/kg, sildenafil 0.3 mg/kg i.v.
[7] = 3 mg/kg i.v., vs vehicle (50% glycofurol)

With CCCc1nn(C)c2c(=O)[nH]c(-c3cc(S(=O)(=O)N4CCN(C)CC4)ccc3OCC)nc12 [sildenafil] the “effect on blood pressure drop caused by nebivolol” value (anesthetized rats; [5]) was “significantly enhanced”, the “effect on reduction of heart rate caused by nebivolol” value (anesthetized rats; [5]) was “not modified” and the “effect on heart rate reduction caused by nebivolol” value (anesthetized rats; [6]) was “did not significantly alter”. For the same molecule, the “effect on hypotension caused by nebivolol” value (anesthetized rats; [6]) was “did not significantly alter”, the “effect on plasma cGMP levels” value (cGMP in rat plasma [1]; i.v.: atenolol 3 mg/kg, sildenafil 0.3 mg/kg, sodium nitroprusside 0.1 mg/kg) was “augmented cGMP up to similar levels than nebivolol” and the “effect on plasma cGMP levels in diabetic and non diabetic rats” value (cGMP in rat plasma [2]; sildenafil 0.3 mg/kg i.v.) was “marked increase”. The “influence on serum TBARS levels” value ([3]; sildenafil 0.3 mg/kg i.v.) was “did not significantly influence”.
In the case of CC(C)NCC(O)COc1ccc(CC(N)=O)cc1 (stereo not drawn) [atenolol], the “effect on endothelium-dependent relaxation of HPRA caused by acetylcholine” value ([4]; atenolol (1 (unit uncertain))) is reported as “not affected”, the “effect on arterial pressure in diabetic rats” value (diabetic rats) is reported as “Neither diabetes nor either drug treatment (nebivolol or atenolol) significantly affected” and the “effect on heart rate in diabetic rats” value (diabetic rats) is reported as “further reduced”.
For OC(CNCC(O)C1CCc2cc(F)ccc2O1)C1CCc2cc(F)ccc2O1 (racemic) [nebivolol, α,α′-iminobis(methylene)bis[6-fluoro-2-chromanmethanol]], the “effect on blood pressure” value (anesthetized rats; 1 mg/kg i.v.) was “hypotensive and bradycardic effects of moderate intensity”, the “effect on heart rate” value (anesthetized rats; 1 mg/kg i.v.) was “hypotensive and bradycardic effects of moderate intensity” and the “effect on heart rate (HR)” value (anesthetized rats; [7]) was “significant reduction of heart rate”. The “effect on mean arterial pressure (MAP)” value (anesthetized rats; [7]) was “significant hypotensive effect”, the “increase in plasma cGMP levels” value (cGMP in rat plasma [1]; 3 mg/kg i.v., 10 minutes after administration, percentage of cGMP concentration before administration (FIG. 15)) was 177±38% and the “interaction with sildenafil on plasma cGMP levels” value (cGMP in rat plasma [1]; combination of sildenafil and nebivolol) was “synergistically increases plasma cGMP levels”. The “plasma cGMP levels after combined administration with sildenafil” value (cGMP in rat plasma [1]; nebivolol 3 mg/kg + sildenafil 0.3 mg/kg i.v.) was “marked increase of cGMP levels”, the “plasma cGMP levels after combining sildenafil with nebivolol, dose-dependent” value (cGMP in rat plasma [1]; nebivolol 1 and 3 mg/kg + sildenafil 0.3 mg/kg i.v.) was “significant further increase” and the EC50 ([4]; Homo sapiens, nebivolol 1 nM to 10 μM, read-out: EC50, endothelium-dependent vasodilation of HPRA) was 24.4 nM. The Emax ([4]; Homo sapiens, nebivolol 1 nM to 10 μM, read-out: Emax, endothelium-dependent vasodilation of HPRA) was 59.1 ± 10.3%, the “relaxation of HPRA compared with metoprolol or atenolol” value ([4]; U46619 30-100 nM) was “significantly more potent than those caused by metoprolol or atenolol” and the “relaxation of HPRA by cumulative addition” value ([4]; U46619 30-100 nM, 1 nM to 0.1 mM) was “marked relaxations”. For the same molecule, the “effect on endothelium-dependent relaxation of HPRA caused by acetylcholine” value ([4]; atenolol (1 (unit uncertain))) was “not affected”, the “effect on sildenafil-mediated relaxation of HPRA” value ([4]; nebivolol (1 (unit uncertain)), atenolol (1 (unit uncertain))) was “able to enhance” and the “effect on arterial pressure in diabetic rats” value (diabetic rats) was “Neither diabetes nor either drug treatment (nebivolol or atenolol) significantly affected”. For the same molecule, the “effect on heart rate in diabetic rats” value (diabetic rats) was “further reduced”, the “effect on plasma cGMP content in diabetic rats” value (cGMP in rat plasma [2]; 3 and 10 mg/kg/day for 10 days) was “did not result in significant modifications” and the “influence on the effects of sildenafil on plasma cGMP content in diabetic rats” value (cGMP in rat plasma [2]; 3 and 10 mg/kg/day for 10 days, sildenafil 0.3 mg/kg i.v.) was “did not influence”. The “effect on TBARS levels in diabetic rats” value ([3]; 10 mg/kg/day for 10 days) was “significant reduction” and the “effect on TBARS levels in diabetic rats” value ([3]; administered for 10 days) was “trend to reduce”.
